Measurements as given in article PMC9684079, “Pharmacological targeting of glutamatergic neurons within the brainstem for weight reduction” (Nature Metabolism, 2022).

Key:
Assay in all cases: biochemical
Parameters in all cases: Cerep/Eurofins selectivity panel, receptors, channels and transporters, per cent inhibition at 10 uM
Conditions in all cases: read-out: % Inhibition
[1] = target: T1, Transporter, Dopamine (DAT) (Homo sapiens, UniProt Q01959)
T1 construct: gene SLC6A3

[2] = target: T2, Transporter, Norepinephrine (NET) (Homo sapiens, UniProt P23975)
T2 construct: gene SLC6A2

[3] = target: T3, Serotonin (5-Hydroxytryptamine) 5-HT3 (Homo sapiens, UniProt P46098)
T3 construct: gene HTR3A
T3 sequence (P46098 whole entry): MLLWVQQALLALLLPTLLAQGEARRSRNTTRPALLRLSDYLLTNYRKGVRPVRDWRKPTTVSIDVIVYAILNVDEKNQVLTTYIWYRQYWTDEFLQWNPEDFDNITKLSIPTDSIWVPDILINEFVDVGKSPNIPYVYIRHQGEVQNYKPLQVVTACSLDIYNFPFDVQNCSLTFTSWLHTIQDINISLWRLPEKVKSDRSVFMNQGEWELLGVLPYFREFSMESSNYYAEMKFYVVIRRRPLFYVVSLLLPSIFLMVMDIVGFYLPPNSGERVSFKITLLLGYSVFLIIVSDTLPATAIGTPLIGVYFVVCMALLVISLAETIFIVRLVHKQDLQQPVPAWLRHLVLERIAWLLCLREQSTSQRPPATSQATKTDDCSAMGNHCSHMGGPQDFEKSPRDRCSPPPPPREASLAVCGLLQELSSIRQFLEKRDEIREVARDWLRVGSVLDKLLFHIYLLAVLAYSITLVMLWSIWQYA

Tachykinin NK3 = target: T4, Tachykinin NK3 (Homo sapiens, UniProt P29371)
T4 construct: gene TACR3
T4 sequence (P29371 whole entry): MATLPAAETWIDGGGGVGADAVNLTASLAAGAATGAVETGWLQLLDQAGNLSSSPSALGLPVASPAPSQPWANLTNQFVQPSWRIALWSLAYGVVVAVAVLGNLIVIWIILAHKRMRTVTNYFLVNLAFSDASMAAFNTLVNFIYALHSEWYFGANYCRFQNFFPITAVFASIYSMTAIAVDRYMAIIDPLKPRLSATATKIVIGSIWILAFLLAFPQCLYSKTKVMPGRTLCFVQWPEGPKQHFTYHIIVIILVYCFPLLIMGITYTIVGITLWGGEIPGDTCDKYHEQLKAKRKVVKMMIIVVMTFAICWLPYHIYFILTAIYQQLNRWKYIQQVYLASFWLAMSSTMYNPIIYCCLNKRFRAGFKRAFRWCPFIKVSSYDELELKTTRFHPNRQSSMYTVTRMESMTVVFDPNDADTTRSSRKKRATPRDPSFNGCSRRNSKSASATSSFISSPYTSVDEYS

Opiate κ(OP2, KOP) = target: T5, Opiate κ(OP2, KOP) (Homo sapiens, UniProt P41145)
T5 construct: gene OPRK1

Tachykinin NK1 = target: T6, Tachykinin NK1 (Homo sapiens, UniProt P25103)
T6 construct: gene TACR1
T6 sequence (P25103 whole entry): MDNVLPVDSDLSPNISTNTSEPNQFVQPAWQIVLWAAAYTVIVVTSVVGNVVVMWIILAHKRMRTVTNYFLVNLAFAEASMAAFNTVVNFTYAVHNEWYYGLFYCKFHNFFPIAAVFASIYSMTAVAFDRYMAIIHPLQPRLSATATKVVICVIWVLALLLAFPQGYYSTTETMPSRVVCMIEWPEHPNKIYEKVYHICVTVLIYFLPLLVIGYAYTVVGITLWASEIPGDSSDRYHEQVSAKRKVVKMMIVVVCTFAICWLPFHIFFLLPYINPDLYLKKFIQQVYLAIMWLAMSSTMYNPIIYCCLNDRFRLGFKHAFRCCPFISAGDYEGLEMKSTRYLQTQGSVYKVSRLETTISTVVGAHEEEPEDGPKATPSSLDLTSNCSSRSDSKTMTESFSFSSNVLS

Angiotensin AT2 = target: T7, Angiotensin AT2 (Homo sapiens, UniProt P50052)
T7 construct: gene AGTR2
T7 sequence (P50052 whole entry): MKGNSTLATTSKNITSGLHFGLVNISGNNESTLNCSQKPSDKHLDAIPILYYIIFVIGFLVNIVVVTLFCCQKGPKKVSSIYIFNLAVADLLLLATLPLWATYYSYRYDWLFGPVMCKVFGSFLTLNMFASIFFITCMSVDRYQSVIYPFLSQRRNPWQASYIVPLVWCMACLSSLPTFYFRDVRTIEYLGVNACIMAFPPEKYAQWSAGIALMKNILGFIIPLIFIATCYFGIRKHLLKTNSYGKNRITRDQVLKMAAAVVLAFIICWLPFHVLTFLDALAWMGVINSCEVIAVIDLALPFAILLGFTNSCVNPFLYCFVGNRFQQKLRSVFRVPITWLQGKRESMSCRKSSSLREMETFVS

Adenosine A1 = target: T8, Adenosine A1 (Homo sapiens, UniProt P30542)
T8 construct: gene ADORA1

Dopamine D3 = target: T9, Dopamine D3 (Homo sapiens, UniProt P35462)
T9 construct: gene DRD3
T9 sequence (P35462 whole entry): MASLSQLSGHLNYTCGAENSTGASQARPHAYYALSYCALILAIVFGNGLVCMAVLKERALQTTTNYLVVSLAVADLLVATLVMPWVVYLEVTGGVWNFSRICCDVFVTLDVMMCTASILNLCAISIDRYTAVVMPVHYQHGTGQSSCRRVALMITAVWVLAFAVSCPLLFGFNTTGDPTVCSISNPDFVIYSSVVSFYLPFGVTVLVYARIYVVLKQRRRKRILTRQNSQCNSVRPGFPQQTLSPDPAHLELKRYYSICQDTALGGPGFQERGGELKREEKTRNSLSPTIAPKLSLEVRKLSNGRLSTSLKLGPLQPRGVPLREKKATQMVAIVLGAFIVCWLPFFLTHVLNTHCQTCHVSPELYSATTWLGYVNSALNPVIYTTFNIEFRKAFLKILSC

Cholecystokinin CCK2 = target: T10, Cholecystokinin CCK2 (Homo sapiens, UniProt P32239)
T10 construct: gene CCKBR

Dopamine D2L = target: T11, Dopamine D2L (Homo sapiens, UniProt P14416)
T11 construct: gene DRD2; long isoform D2L
T11 sequence (P14416 whole entry, canonical isoform): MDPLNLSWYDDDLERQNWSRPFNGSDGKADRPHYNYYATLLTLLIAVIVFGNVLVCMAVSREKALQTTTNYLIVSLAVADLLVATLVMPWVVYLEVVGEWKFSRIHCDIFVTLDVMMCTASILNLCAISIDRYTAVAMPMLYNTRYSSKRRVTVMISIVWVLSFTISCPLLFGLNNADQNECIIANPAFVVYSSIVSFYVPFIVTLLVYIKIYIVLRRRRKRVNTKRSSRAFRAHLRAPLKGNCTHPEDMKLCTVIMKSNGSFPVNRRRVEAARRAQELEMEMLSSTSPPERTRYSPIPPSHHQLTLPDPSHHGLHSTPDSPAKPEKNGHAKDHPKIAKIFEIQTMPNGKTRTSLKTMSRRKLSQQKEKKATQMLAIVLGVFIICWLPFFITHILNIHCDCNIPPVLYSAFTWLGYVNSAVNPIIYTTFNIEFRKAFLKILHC

Adrenergic β2 = target: T12, Adrenergic β2 (Homo sapiens, UniProt P07550)
T12 construct: gene ADRB2
T12 sequence (P07550 whole entry): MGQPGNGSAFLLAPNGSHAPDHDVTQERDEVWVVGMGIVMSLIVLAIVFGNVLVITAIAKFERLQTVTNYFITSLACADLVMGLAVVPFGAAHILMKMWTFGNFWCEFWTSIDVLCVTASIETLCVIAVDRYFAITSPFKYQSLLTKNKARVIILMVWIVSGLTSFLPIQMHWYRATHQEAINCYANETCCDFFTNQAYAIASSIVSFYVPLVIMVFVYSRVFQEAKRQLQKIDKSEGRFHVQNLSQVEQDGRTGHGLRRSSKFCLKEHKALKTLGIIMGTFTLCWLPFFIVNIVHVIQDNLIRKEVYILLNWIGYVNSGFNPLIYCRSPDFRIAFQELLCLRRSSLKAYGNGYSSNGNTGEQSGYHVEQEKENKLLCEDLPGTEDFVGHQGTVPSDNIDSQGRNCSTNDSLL

Vasopressin V1a = target: T13, Vasopressin V1a (Homo sapiens, UniProt P37288)
T13 construct: gene AVPR1A

Histamine H2 = target: T14, Histamine H2 (Homo sapiens, UniProt P25021)
T14 construct: gene HRH2

Tachykinin NK2 = target: T15, Tachykinin NK2 (Homo sapiens, UniProt P21452)
T15 construct: gene TACR2
T15 sequence (P21452 whole entry): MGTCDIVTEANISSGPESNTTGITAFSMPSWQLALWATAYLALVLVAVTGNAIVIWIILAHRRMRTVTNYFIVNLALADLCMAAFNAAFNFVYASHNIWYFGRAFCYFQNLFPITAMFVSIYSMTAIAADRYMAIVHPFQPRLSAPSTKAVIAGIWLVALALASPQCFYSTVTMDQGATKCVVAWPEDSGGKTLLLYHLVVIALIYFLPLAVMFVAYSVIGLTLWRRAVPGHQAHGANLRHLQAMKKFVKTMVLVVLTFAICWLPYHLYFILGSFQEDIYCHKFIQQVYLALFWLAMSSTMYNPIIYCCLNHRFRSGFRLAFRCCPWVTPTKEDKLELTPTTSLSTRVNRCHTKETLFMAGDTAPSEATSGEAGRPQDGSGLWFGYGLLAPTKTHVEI

Muscarinic M1 = target: T16, Muscarinic M1 (Homo sapiens, UniProt P11229)
T16 construct: gene CHRM1

Adenosine A2A = target: T17, Adenosine A2A (Homo sapiens, UniProt P29274)
T17 construct: gene ADORA2A
T17 sequence (P29274 whole entry): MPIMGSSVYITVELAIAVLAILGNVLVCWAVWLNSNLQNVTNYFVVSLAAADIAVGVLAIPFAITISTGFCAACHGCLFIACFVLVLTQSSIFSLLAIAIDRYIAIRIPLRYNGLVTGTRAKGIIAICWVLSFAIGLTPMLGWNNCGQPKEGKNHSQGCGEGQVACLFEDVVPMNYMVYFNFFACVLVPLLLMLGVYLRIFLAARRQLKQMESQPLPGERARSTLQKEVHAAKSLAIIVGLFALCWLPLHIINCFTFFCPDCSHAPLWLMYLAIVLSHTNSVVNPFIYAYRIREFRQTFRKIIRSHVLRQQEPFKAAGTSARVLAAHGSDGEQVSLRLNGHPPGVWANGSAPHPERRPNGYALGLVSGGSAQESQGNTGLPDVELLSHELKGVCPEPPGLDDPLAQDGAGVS

Adenosine A3 = target: T18, Adenosine A3 (Homo sapiens, UniProt P0DMS8)
T18 construct: gene ADORA3

Dopamine D1 = target: T19, Dopamine D1 (Homo sapiens, UniProt P21728)
T19 construct: gene DRD1

Opiate μ(OP3, MOP) = target: T20, Opiate μ(OP3, MOP) (Homo sapiens, UniProt P35372)
T20 construct: gene OPRM1

AdenosineA2B = target: T21, AdenosineA2B (Homo sapiens, UniProt P29275)
T21 construct: gene ADORA2B

Cannabinoid CB1 = target: T22, Cannabinoid CB1 (Homo sapiens, UniProt P21554)
T22 construct: gene CNR1

Adrenergic β1 = target: T23, Adrenergic β1 (Homo sapiens, UniProt P08588)
T23 construct: gene ADRB1
T23 sequence (P08588 whole entry): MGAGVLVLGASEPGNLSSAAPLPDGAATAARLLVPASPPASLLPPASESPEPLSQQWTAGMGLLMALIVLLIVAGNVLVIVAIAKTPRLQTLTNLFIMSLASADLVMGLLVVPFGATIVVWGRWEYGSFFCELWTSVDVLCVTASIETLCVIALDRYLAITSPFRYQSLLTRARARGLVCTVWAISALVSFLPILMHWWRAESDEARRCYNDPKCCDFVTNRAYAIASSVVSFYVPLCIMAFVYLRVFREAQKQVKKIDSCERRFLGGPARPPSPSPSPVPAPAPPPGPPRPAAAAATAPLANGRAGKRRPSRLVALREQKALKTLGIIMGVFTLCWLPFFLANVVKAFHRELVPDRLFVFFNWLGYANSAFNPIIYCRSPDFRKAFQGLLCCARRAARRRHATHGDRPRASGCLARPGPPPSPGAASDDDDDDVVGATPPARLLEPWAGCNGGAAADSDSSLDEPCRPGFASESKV

Histamine H1 = target: T24, Histamine H1 (Homo sapiens, UniProt P35367)
T24 construct: gene HRH1
T24 sequence (P35367 whole entry): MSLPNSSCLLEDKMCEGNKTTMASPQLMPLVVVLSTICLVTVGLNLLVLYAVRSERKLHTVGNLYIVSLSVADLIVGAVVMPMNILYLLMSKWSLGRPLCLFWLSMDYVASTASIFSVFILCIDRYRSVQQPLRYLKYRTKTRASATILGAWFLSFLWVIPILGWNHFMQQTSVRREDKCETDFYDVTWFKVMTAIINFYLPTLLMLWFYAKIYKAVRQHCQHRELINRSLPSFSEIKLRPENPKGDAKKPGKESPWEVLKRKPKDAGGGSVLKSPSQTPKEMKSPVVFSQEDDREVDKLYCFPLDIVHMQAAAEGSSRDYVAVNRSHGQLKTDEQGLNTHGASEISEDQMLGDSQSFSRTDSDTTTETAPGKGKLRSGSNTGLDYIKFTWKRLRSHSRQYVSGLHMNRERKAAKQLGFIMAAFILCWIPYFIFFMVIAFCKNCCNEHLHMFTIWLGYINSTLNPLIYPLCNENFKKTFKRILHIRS

Adrenergic β3 = target: T25, Adrenergic β3 (Homo sapiens, UniProt P13945)
T25 construct: gene ADRB3

## C[C@]1(Nc2cnc(C(F)(F)F)cn2)CCC[C@@H]1NC(=O)c1ncccc1-n1nccn1 [CVN45502]
[1]
  inhibition at 10 µM: 4%
[2]
  inhibition at 10 µM: -6%
[3]
  inhibition at 10 µM: -9%
Tachykinin NK3
  inhibition at 10 µM: 27%
Opiate κ(OP2, KOP)
  inhibition at 10 µM: 3%
Tachykinin NK1
  inhibition at 10 µM: 12%
Angiotensin AT2
  inhibition at 10 µM: 5%
Adenosine A1
  inhibition at 10 µM: 7%
Dopamine D3
  inhibition at 10 µM: -2%
Cholecystokinin CCK2
  inhibition at 10 µM: 5%
Dopamine D2L
  inhibition at 10 µM: 7%
Adrenergic β2
  inhibition at 10 µM: 0%
Vasopressin V1a
  inhibition at 10 µM: -14%
Histamine H2
  inhibition at 10 µM: -14%
Tachykinin NK2
  inhibition at 10 µM: -8%
Muscarinic M1
  inhibition at 10 µM: -1%
Adenosine A2A
  inhibition at 10 µM: 2%
Adenosine A3
  inhibition at 10 µM: -2%
Dopamine D1
  inhibition at 10 µM: 2%
Opiate μ(OP3, MOP)
  inhibition at 10 µM: -3%
AdenosineA2B
  inhibition at 10 µM: -7%
Cannabinoid CB1
  inhibition at 10 µM: 8%
Adrenergic β1
  inhibition at 10 µM: -14%
Histamine H1
  inhibition at 10 µM: 2%
Adrenergic β3
  inhibition at 10 µM: 0%
